# Reference: patent US20240010684A1, “MASP INHIBITORY COMPOUNDS AND USES THEREOF” (BAYER AKTIENGESELLSCHAFT, priority 2020, published 2024)
# Where a SMILES comes first, the peptide text is derived from it. Bridges are numbered along the chain shown (N, C = ends). [ ]: non-standard residue; d: D form. Oic = O=C(O)[C@@H]1C[C@@H]2CCCC[C@@H]2N1; tBuAla = CC(C)(C)C[C@H](N)C(=O)O; Pen = CC(C)(S)[C@H](N)C(=O)O; Orn = NCCC[C@H](N)C(=O)O; Dap = NC[C@H](N)C(=O)O; Ahx = NCCCCCC(=O)O
# Columns and labels:
# human MASP2 = human MASP2 (Homo sapiens (Human), UniProt O00187); test: Biochemical human MASP2 assay (FRET substrate); details: Average IC50; recombinant human MASP2; read-out: human MASP2 IC50
# Sequence of human MASP2 (O00187 other isoform, or with tags, fused parts or gaps): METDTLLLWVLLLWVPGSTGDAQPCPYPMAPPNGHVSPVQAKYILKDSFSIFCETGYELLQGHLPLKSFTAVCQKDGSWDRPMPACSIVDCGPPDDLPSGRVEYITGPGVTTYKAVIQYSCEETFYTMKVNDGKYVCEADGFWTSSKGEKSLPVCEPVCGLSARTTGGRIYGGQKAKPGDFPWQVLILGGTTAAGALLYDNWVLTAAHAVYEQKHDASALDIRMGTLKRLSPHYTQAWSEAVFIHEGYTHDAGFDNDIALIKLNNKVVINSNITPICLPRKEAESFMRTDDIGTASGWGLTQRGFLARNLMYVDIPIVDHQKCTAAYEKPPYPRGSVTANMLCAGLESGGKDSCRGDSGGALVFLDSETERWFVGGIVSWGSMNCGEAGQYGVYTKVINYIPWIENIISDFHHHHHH
# Source text: The MASP1 or MASP2 expression vectors were transfected into the HEK293 (ATCC No. CRL-1573) cell line using Lipofectamine LTX® Reagent (Thermo-Fischer), as described by the manufacturer. The mature form of the recombinant human MASP1 and M[…] were secreted into the culture medium. The MASP1 and M[…] were purified from the conditioned media by affinity chromatography on Ni-NTA Superflow resin (Qiagen) as described by the manufacturer. 2.3 Biochemical Human MASP2 Assay […] The enzymatic reaction was initiated by addition of 25 μl of 60 μM solution of the FRET substrate DABCYL-[…]; […] The microtiter plate was incubated for 60-120 min at the temperature of 32 C. The increase of fluorescence intensity was measured in appropriate fluorescence plate reader (e.g. TECAN Ultra) using excitation wavelength of 340 nm and emission wavelength of 490 nm. IC50 values were calculated from percentage of inhibition of human MASP2 activity as a function of test compound concentration.
# human MASP1 = human MASP1 (Homo sapiens (Human), UniProt P48740); test: Biochemical human MASP1 assay (FRET substrate); details: Average IC50; recombinant human MASP1; read-out: human MASP1 IC50
# Sequence of human MASP1 (P48740 other isoform, or with tags, fused parts or gaps): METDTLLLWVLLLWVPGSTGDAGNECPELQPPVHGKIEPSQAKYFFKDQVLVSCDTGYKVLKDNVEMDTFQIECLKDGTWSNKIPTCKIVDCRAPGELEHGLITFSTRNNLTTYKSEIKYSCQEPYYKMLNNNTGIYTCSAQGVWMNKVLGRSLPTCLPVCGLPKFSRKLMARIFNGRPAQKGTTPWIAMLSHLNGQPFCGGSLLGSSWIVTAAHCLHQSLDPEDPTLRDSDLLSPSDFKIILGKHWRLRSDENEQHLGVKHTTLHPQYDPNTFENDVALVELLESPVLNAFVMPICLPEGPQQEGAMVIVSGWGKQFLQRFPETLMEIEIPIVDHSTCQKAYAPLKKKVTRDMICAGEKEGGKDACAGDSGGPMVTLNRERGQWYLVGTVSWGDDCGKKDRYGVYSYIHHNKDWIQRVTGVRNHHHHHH
# Source text: A truncated cDNA sequence of human MASP1 encoding the fragment corresponding to the amino acids 297-699 with a C-terminal His Tag and N-terminal Ig-kappa secretion signal (SEQ ID No: 2) was subcloned into the mammalian expression vector pcDNA3.1 (Invitrogen).
# The MASP1 or MASP2 expression vectors were transfected into the HEK293 (ATCC No. CRL-1573) cell line using Lipofectamine LTX® Reagent (Thermo-Fischer), as described by the manufacturer. The mature form of the recombinant human MASP1 and MASP2 proteases were secreted into the culture medium. The MASP1 and MASP2 proteins were purified from the conditioned media by affinity chromatography on Ni-NTA Superflow resin (Qiagen) as described by the manufacturer.
# 2.2 Biochemical Human MASP1 Assay
# Recombinant human MASP1 enzyme produced in the HEK 293 cells was diluted in the reaction buffer (50 mM HEPES pH 8,0; 100 mM NaCl; 0,01% CHAPS; 0.5 mM Gluthathione) to the concentration of 20 nM and 25 μl was transferred into each single well of 384-well white microtiter plate (Greiner Bio One 781075). 1 μl of the inhibitor compound solution (dissolved in DMSO, at the corresponding concentration) or pure DMSO as a control was added to the same wells. The enzymatic reaction was initiated by addition of 25 μl of 20 μM solution of the FRET substrate ABZ-[…]-Lys (Dnp)-NH2; (ABZ-2-aminobenzoyl; DNP 2,4-dinitrophenyl; custom synthesis by Jerini Peptide Technologies, Berlin) in the reaction buffer. The microtiter plate was incubated for 60-120 min at the temperature of 32 C. The increase of fluorescence intensity was measured in appropriate fluorescence plate reader (e.g. TECAN Ultra) using excitation wavelength of 320 nm and emission wavelength of 420 nm. IC50 values were calculated from percentage of inhibition of human MASP1 activity as a function of test compound concentration.
IC50 (human MASP2) [µM],IC50 (human MASP1) [µM],SMILES
0.071,0.029,CC[C@H](C)[C@@H]1NC(=O)CNC(=O)[C@@H](N)CCC(=O)NCCCC[C@@H](C(N)=O)NC(=O)[C@H](CC(=O)O)NC(=O)[C@@H]2CCCN2C(=O)[C@H]([C@@H](C)CC)NC(=O)[C@H]2NC(=O)[C@H]([C@@H](C)CC)NC(=O)[C@@H]3C[C@@H]4CCCC[C@@H]4N3C(=O)[C@@H]3CCCN3C(=O)[C@H](CC(C)C)NC(=O)[C@H](CO)NC(=O)[C@H](CCCNC(=N)N)NC(=O)[C@H](CO)NC(=O)[C@H](CSSC2(C)C)NC1=O [Example 91] (H-EGICSRSLP[Oic]I[Pen]IPDK-NH2; lactam 1-16; disulfide 4-12)
0.091,0.018,CC[C@H](C)[C@@H]1NC(=O)CNC(=O)CCCCCNC(=O)CC[C@@H](C(N)=O)NC(=O)[C@@H]2CCCN2C(=O)[C@H]([C@@H](C)CC)NC(=O)[C@H]2NC(=O)[C@H]([C@@H](C)CC)NC(=O)[C@@H]3C[C@@H]4CCCC[C@@H]4N3C(=O)[C@@H]3CCCN3C(=O)[C@H](CC(C)C)NC(=O)[C@H](CO)NC(=O)[C@H](CCCNC(=N)N)NC(=O)[C@H](CO)NC(=O)[C@H](CSSC2(C)C)NC1=O [Example 83] ([Ahx]GICSRSLP[Oic]I[Pen]IPE-NH2; disulfide 4-12; lactam N-15)
0.024,0.021,"CC[C@H](C)[C@@H]1NC(=O)[C@@H](N)CCCNC(=O)[C@@H]2CCCN2C(=O)[C@H]([C@@H](C)CC)NC(=O)[C@H]2NC(=O)[C@H]([C@@H](C)CC)NC(=O)[C@@H]3CCCN3C(=O)[C@@H]3CCCN3C(=O)[C@H](CC(C)(C)C)NC(=O)[C@H](CO)NC(=O)[C@H](CCCNC(=N)N)NC(=O)[C@H](CO)NC(=O)[C@H](CSSC2(C)C)NC1=O [Example 71, N-{3-[(6S,9S,12S,15S,18R,21S,24S,29aS,35S,38R,41S,43aS,48aS)-24-amino-21,35,41-tri[(2S)-butan-2-yl]-6-(2,2-dimethylpropyl)-9,15-bis(hydroxymethyl)-49,49-dimethyl-5,8,11,14,17,20,23,29,34,37,40,43,48-tridecaoxohexatetracontahydro-1H,5H-18,38-(methanodithiomethano)tripyrrolo[2,1-c:2′,1′-o:2″,1″-r][1,4,7,10,13,16,19,22,25,28,31,34,37]tridecaazacyclodotetracontin-12-yl]propyl}guanidine] (H-[Orn]ICSRS[tBuAla]PPI[Pen]IP; lactam 1-C; disulfide 3-11)"
0.54,0.049,"CC[C@H](C)[C@@H]1NC(=O)CNC(=O)[C@H](CCCN)NC(=O)[C@H]([C@@H](C)CC)NC(=O)[C@H]2NC(=O)[C@H]([C@@H](C)CC)NC(=O)[C@@H]3CCCN3C(=O)[C@@H]3CCCN3C(=O)[C@H](CC(C)(C)C)NC(=O)[C@H](CO)NC(=O)[C@H](CCCNC(=N)N)NC(=O)[C@H](CO)NC(=O)[C@H](CSSC2(C)C)NC1=O [Example 65, N-{3-[(5aS,11S,14S,17S,20S,23R,26S,32S,35S,38R,41S,43aS)-32-(3-aminopropyl)-26,35,41-tri[(2S)-butan-2-yl]-11-(2,2-dimethylpropyl)-14,20-bis(hydroxymethyl)-44,44-dimethyl-5,10,13,16,19,22,25,28,31,34,37,40,43-tridecaoxodotetracontahydro-5H-23,38-(methanodithiomethano)dipyrrolo[1,2-a:1′,2′-d][1,4,7,10,13,16,19,22,25,28,31,34,37]tridecaazacyclononatriacontin-17-yl]propyl}guanidine] (cyclo(CSRS[tBuAla]PPI[Pen]I[Orn]GI); disulfide 1-9)"
0.7,0.069,CC[C@H](C)[C@@H]1NC(=O)[C@H](C)NC(=O)CNC(=O)CCCCCNC(=O)CC[C@@H](C(N)=O)NC(=O)[C@@H]2CCCN2C(=O)[C@H]([C@@H](C)CC)NC(=O)[C@H]2NC(=O)[C@H]([C@@H](C)CC)NC(=O)[C@@H]3C[C@@H]4CCCC[C@@H]4N3C(=O)[C@@H]3CCCN3C(=O)[C@H](CC(C)C)NC(=O)[C@H](CO)NC(=O)[C@H](CCCNC(=N)N)NC(=O)[C@H](CO)NC(=O)[C@H](CSSC2(C)C)NC1=O [Example 82] ([Ahx]GAICSRSLP[Oic]I[Pen]IPE-NH2; disulfide 5-13; lactam N-16)

# More lines, now with the values behind:
SMILES,IC50 (human MASP2) [µM],IC50 (human MASP1) [µM]
CC[C@H](C)[C@@H]1NC(=O)CNC(=O)CNC(=O)[C@@H](N)CNC(=O)[C@H](CC(=O)O)NC(=O)[C@@H]2CCCN2C(=O)[C@H]([C@@H](C)CC)NC(=O)[C@@H]2CSSC[C@H](NC1=O)C(=O)N[C@@H](CO)C(=O)N[C@@H](CCCNC(=N)N)C(=O)N[C@@H](CO)C(=O)N[C@@H](CC(C)C)C(=O)N1CCC[C@H]1C(=O)N1CCC[C@H]1C(=O)N[C@@H]([C@@H](C)CC)C(=O)N2 [Example 20] (H-[Dap]GGICSRSLPPICIPD; lactam 1-C; disulfide 5-13),0.11,0.055
"CC[C@H](C)[C@@H]1NC(=O)CNC(=O)CCCCCNC(=O)[C@@H](CC(=O)O)NC(=O)[C@@H]2CCCN2C(=O)[C@H]([C@@H](C)CC)NC(=O)[C@@H]2CSSC[C@H](NC1=O)C(=O)N[C@@H](CO)C(=O)N[C@@H](CCCNC(=N)N)C(=O)N[C@@H](CO)C(=O)N[C@@H](CC(C)C)C(=O)N1CCC[C@H]1C(=O)N1CCC[C@H]1C(=O)N[C@@H]([C@@H](C)CC)C(=O)N2 [Example 16, [(6S,9S,12S,15S,18R,21S,34R,36aS,42S,45R,48S,50aS,55aS)-21,42,48-tri[(2S)-butan-2-yl]-12-(3-carbamimidamidopropyl)-9,15-bis(hydroxymethyl)-6-(2-methylpropyl)-5,8,11,14,17,20,23,26,33,36,41,44,47,50,55-pentadecaoxotetrapentacontahydro-1H-18,45-(methanodithiomethano)tripyrrolo[2,1-f:2′,1′-r:2″,1″-u][1,4,7,10,13,16,19,22,25,28,31,34,37,40,43]pentadecaazacyclononatetracontin-34-yl]acetic acid] (cyclo([Ahx]GICSRSLPPICIP[dD]); disulfide 4-12)",0.37,0.15
CC[C@H](C)[C@@H]1NC(=O)CNC(=O)CNC(=O)[C@@H](C)NC(=O)[C@H](CC(=O)O)NC(=O)[C@@H]2CCCN2C(=O)[C@H]([C@@H](C)CC)NC(=O)[C@@H]2CSSC[C@H](NC1=O)C(=O)N[C@@H](CO)C(=O)N[C@@H](CCCNC(=N)N)C(=O)N[C@@H](CO)C(=O)N[C@@H](CC(C)C)C(=O)N1CCC[C@H]1C(=O)N1CCC[C@H]1C(=O)N[C@@H]([C@@H](C)CC)C(=O)N2 [Example 19] (cyclo(CIPD[dA]GGICSRSLPPI); disulfide 1-9),0.21,0.049
CC[C@H](C)[C@@H]1NC(=O)[C@H](C)NC(=O)CCCCCNC(=O)[C@@H]2CCCN2C(=O)[C@H]([C@@H](C)CC)NC(=O)[C@@H]2CSSC[C@H](NC1=O)C(=O)N[C@@H](CO)C(=O)N[C@@H](CCCNC(=N)N)C(=O)N[C@@H](CO)C(=O)N[C@@H](CC(C)C)C(=O)N1CCC[C@H]1C(=O)N1[C@@H](C[C@@H]3CCCC[C@@H]31)C(=O)N[C@@H]([C@@H](C)CC)C(=O)N2 [Example 25] (cyclo(AICSRSLP[Oic]ICIP[Ahx]); disulfide 3-11),0.61,0.06
CC[C@H](C)[C@@H]1NC(=O)CNC(=O)[C@@H](N)CCCCNC(=O)[C@H](CC(=O)O)NC(=O)[C@@H]2CCCN2C(=O)[C@H]([C@@H](C)CC)NC(=O)[C@@H]2CSSC[C@H](NC1=O)C(=O)N[C@@H](CO)C(=O)N[C@@H](CCCNC(=N)N)C(=O)N[C@@H](CO)C(=O)N[C@@H](CC(C)C)C(=O)N1CCC[C@H]1C(=O)N1CCC[C@H]1C(=O)N[C@@H]([C@@H](C)CC)C(=O)N2 [Example 22] (H-KGICSRSLPPICIPD; lactam 1-C; disulfide 4-12),0.091,0.19
CC[C@H](C)[C@@H]1NC(=O)[C@H](C)NC(=O)CCCCCNC(=O)[C@H](CC(=O)O)NC(=O)[C@@H]2CCCN2C(=O)[C@H]([C@@H](C)CC)NC(=O)[C@@H]2CSSC[C@H](NC1=O)C(=O)N[C@@H](CO)C(=O)N[C@@H](CCCNC(=N)N)C(=O)N[C@@H](CO)C(=O)N[C@@H](CC(C)C)C(=O)N1CCC[C@H]1C(=O)N1CCC[C@H]1C(=O)N[C@@H]([C@@H](C)CC)C(=O)N2 [Example 45] (cyclo(AICSRSLPPICIPD[Ahx]); disulfide 3-11),0.074,0.092
